Data taken from US8865426B2, “Screening method using gelatinase-mediated EphA4 cleavage reaction as an indicator” (Eisai R&D Management Co., Ltd., priority 2010, dated 2014).

Experiments:
[1] = system: gelatinase (MMP-2, MMP-9)-mediated EphA4 ectodomain cleavage reaction; assay: Western blot assay of NMDA-induced EphA4 cleavage (EphA4 endodomain fragment) in hippocampal primary cultured neurons; format: cell-based, rat
Experimental: (§1) With the aim of identifying proteases which cleave off the EphA4 ectodomain in a neuronal activity-dependent manner, analysis was first performed using a specific inhibitor of gelatinase family molecules (MMP-2, MMP-9) having important functions in the brain. Neurostimulation was performed with 50 μM NMDA, and the inhibitor used was mmp-2/9 Inhibitor II ((2R)-[(4-biphenylylsulfonyl)amino]-N-hydroxy-3-phenylpropionamide, Merck). For detection of cleavage reaction, two types of antibody-based assays were used, i.e., Western blot assay using an antibody capable of recognizing the EphA4 endodomain and ELISA assay using an antibody capable of recognizing the EphA4 ectodomain.
(§2) Hippocampi were isolated from SD rats at 18 days of embryonic age (Charles River Laboratories, Inc.) and provided for culture. More specifically, fetuses were aseptically taken from pregnant rats. From these fetuses, brains were excised and soaked in 20% FBS (Hyclone)/HBSS (SIGMA). From the excised brains, hippocampi were collected under a stereoscopic microscope. […] On the other hand, the neuronal cells were collected with PBS and then quantified for their protein levels, and 10 μg aliquots were subjected to SDS-PAGE, followed by Western blotting with an anti-EphA4 antibody capable of recognizing the endodomain.

[2] = system: gelatinase (MMP-2, MMP-9)-mediated EphA4 ectodomain cleavage reaction; assay: ELISA assay of NMDA-induced EphA4 cleavage (EphA4 ectodomain in cultured solution) in hippocampal primary cultured neurons; format: cell-based, rat
Experimental: as §1, §2

Row | neuronal activity-dependent EphA4 ectodomain cleavage reaction in hippocampal primary cultured neurons (summary statement) ([2]; concentration not given) | EphA4 cleavage event detected by ELISA with antibody recognizing the EphA4 ectodomain ([2]; hippocampal neuronal cells stimulated with 50 μM NMDA, 5 μM inhibitor, FIG. 2B) | Compound | induction of EphA4 cleavage reaction (EphA4 endodomain fragment detected) ([1]; hippocampal neuronal cells, 50 μM NMDA, 30 minutes, FIG. 2) | EphA4 cleavage reaction (EphA4 endodomain fragment, Western blot) ([1]; hippocampal neuronal cells stimulated with 50 μM NMDA, 0, 1, 5, 10 or 25 μM inhibitor added, FIG. 2A)
1 | – | – | CN[C@H](CC(=O)O)C(=O)O [NMDA] | induced | –
2 | completely inhibited | completely inhibited | O=C(NO)[C@@H](Cc1ccccc1)NS(=O)(=O)c1ccc(-c2ccccc2)cc1 [mmp-2/9 Inhibitor II, (2R)-[(4-Biphenylylsulfonyl)amino]-N-hydroxy-3-phenylpropionamide] | – | inhibited in a concentration-dependent manner
